Experimental data from US20210255193A1, “LYSINE REACTIVE PROBES AND USES THEREOF” (The Scripps Research Institute, priority 2017, published 2021).

What was measured:
[1] = biological target: T1, HDHD3 Haloacid dehalogenase-like hydrolase domain-containing protein 3 (Homo sapiens, UniProt Q9BSH5); experiment: competitive isoTOP-ABPP; format: binding; conditions: for isoTOP-ABPP ratio (R) at liganded lysine Q9BSH5_K15: 50 uM, in vitro, sol, 231
T1 construct: isoTOP-ABPP experiments performed in cell lysates (in vitro); endogenous in cells; host or cells: soluble proteome of human cancer cell lines (MDA-MB-231; Ramos and Jurkat also prepared)
T1 sequence (Q9BSH5 1-251): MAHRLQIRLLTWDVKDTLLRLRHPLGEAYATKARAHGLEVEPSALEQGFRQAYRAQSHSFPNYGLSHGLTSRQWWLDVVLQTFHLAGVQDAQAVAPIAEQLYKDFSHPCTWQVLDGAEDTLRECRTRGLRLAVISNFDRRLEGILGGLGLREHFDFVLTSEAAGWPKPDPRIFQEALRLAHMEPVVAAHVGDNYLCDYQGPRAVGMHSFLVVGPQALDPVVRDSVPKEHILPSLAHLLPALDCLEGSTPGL
Experimental: (§1) In vitro covalent fragment treatment for isoTOP-ABPP. All compounds were made up as solutions in DMSO (100×) and were used at a final concentration of 50 μM for activated esters and 100 μM for guanidinylating agents. For each profiling sample, 0.5 ml of lysate was treated with 5 μl of the 100× compound stock solution or 5 μl of DMSO. Samples were treated with activated esters for
(§2) STP-alkyne labeling and click chemistry. For concentration-dependent reactivity measurements by isoTOP-ABPP, 0.5 ml proteome aliquots were treated at ambient temperature with 1 mM STP-alkyne 1 (5 μl of 100 mM stock in DMSO) and 0.1 mM STP alkyne 1 (5 μl of 10 mM stock in DMSO), respectively. For competitive isoTOP-ABPP, after in vitro fragment treatment (detailed above), the samples were labeled for 1 h at ambient temperature with 0.1 mM STP-alkyne 1 (5 μl of 10 mM stock in DMSO). Samples were conjugated by copper-mediated azide-alkyne cycloaddition (CuAAC) to either the light (1 mM STP-alkyne or fragment treated) or heavy (0.1 mM STP-alkyne or DMSO treated) TEV tags (10 μl of 5 mM stocks in DMSO, final concentration=100 μM) using tris(2-carboxyethyl)phosphine hydrochloride
(§3) R value calculation and processing. The ratios of light and heavy MS1 peaks for each unique peptide were quantified with a CIMAGE software using default parameters (3 MS1 acquisitions per peak and signal to noise threshold set to 2.5). For reactivity measurements by isoTOP-ABPP, the R value was calculated from the ratio of MS1 peak areas, comparing the 1 mM STP alkyne sample (light TEV tag) with the 0.1 mM STP alkyne sample (heavy TEV tag). For competitive isoTOP-ABPP, the R value was calculated from the ratio of MS1 peak areas, comparing the DMSO treated sample (heavy TEV tag) with the compound treated sample (light TEV tag). […] Ratios for unique peptide entries are calculated for each experiment; overlapping peptides with the same modified lysine (for example, different charge states, MudPIT chromatographic steps or tryptic termini) are grouped together and the median ratio is reported as the final ratio (R). The peptide ratios reported by CIMAGE were further filtered to ensure the removal or correction of low-quality ratios in each individual data set. The quality filters applied were the following: removal of half tryptic peptides; for ratios with high standard deviations from the median (90% of the median or above) the lowest ratio was taken instead of the median; removal of peptides with R=20 and only a single MS2 event triggered during the elution of the parent ion; manual annotation of all the peptides with ratios of 20, removing any peptides with low quality elution profiles that remained after the previous curation steps (only done for competitive isoTOP-ABPP).
(§4) Cross-data processing for fragment screening. For compound treated samples, biological replicates of the same condition were averaged, if the standard deviation was below 60% of the mean; otherwise, for lysines with at least one R value <4 for a particular compound, the lowest value of the ratio set was taken. For lysines, where all R values for a particular compound were ≥4, the average was reported. For peptides containing several possible modified lysines, the lysine with the highest number of quantification events was used for analysis and the remaining, redundant peptides were reported as alternative modification sites. Peptides included in the aggregate dataset (those used for further bioinformatics and statistical analyses) were required to have been quantified in 2 experiments for competitive isoTOP-ABPP. Lysines were categorized as liganded, if they had at least one ratio R≥4 (hit fragments). For liganded lysines with R=20 for all liganding events, lysines were required to have been quantified with R=20 in two separate experiments and were further required to have been quantified with R<20 in one additional experiment.

[2] = biological target: T2, ACBD3 Golgi resident protein GCP60 (Homo sapiens, UniProt Q9H3P7); experiment: competitive isoTOP-ABPP; format: binding; conditions: for isoTOP-ABPP ratio (R) at liganded lysine Q9H3P7_K117: 50 uM, in vitro, sol, 231
T2 construct: isoTOP-ABPP experiments performed in cell lysates (in vitro); endogenous in cells; host or cells: soluble proteome of human cancer cell lines (MDA-MB-231; Ramos and Jurkat also prepared)
T2 sequence (Q9H3P7 1-528): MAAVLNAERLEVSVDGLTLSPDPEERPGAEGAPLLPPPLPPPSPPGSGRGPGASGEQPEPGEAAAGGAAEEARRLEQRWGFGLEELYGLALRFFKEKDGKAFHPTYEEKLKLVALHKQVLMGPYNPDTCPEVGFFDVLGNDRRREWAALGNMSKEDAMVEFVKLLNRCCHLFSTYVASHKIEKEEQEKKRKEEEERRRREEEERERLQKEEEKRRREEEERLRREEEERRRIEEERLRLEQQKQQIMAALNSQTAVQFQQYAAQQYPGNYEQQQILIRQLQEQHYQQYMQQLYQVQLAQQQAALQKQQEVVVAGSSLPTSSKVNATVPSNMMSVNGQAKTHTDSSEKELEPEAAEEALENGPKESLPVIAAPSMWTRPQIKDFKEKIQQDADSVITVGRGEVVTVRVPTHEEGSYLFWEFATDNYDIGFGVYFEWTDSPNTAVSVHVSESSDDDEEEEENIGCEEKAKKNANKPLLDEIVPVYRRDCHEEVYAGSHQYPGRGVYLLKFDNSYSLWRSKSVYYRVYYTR
Experimental: as §1, §2, §3, §4

SMILES	isoTOP-ABPP ratio, lysine Q9BSH5_K15 ([1]; 50 uM_231_sol_in vitro)	isoTOP-ABPP ratio, lysine Q9H3P7_K117 ([2]; 50 uM_231_sol_in vitro)	other results
CC(C)(C)OC(=O)NCCCC(=O)Oc1ccc([N+](=O)[O-])cc1[N+](=O)[O-] [fragment 41, 2,4-Dinitrophenyl 4-((tert-butoxycarbonyl)amino)butanoate]	–	–	isoTOP-ABPP ratio (R) at liganded lysine Q9BSH5_K15 [1]: 2.8; isoTOP-ABPP ratio (R) at liganded lysine Q9H3P7_K117 [2]: 1.2
O=C(Oc1ccc([N+](=O)[O-])cc1[N+](=O)[O-])C(c1ccccc1)(c1ccccc1)c1ccccc1 [fragment 42, 2,4-Dinitrophenyl 2,2,2-triphenylacetate]	–	–	isoTOP-ABPP ratio (R) at liganded lysine Q9BSH5_K15 [1]: 0.9; isoTOP-ABPP ratio (R) at liganded lysine Q9H3P7_K117 [2]: 1.0
CC(=O)Oc1ccc([N+](=O)[O-])cc1[N+](=O)[O-] [fragment 43, 2,4-Dinitrophenyl acetate]	–	–	isoTOP-ABPP ratio (R) at liganded lysine Q9BSH5_K15 [1]: 3.1; isoTOP-ABPP ratio (R) at liganded lysine Q9H3P7_K117 [2]: 1.2
N#Cc1ccc(C(=O)Oc2ccc([N+](=O)[O-])cc2[N+](=O)[O-])cc1 [fragment 44, 2,4-Dinitrophenyl 4-cyanobenzoate]	20.0	0.8	–
O=C(CCc1ccc2c(c1)OCO2)Oc1ccc([N+](=O)[O-])cc1[N+](=O)[O-] [fragment 45, 2,4-Dinitrophenyl 3-(benzo[d][1,3]dioxol-5-yl)propanoate]	3.4	1.1	–
O=C(ON1C(=O)CCC1=O)c1cc(C(F)(F)F)cc(C(F)(F)F)c1 [fragment 46, 3,5-Bis(trifluoromethyl)benzoic acid NHS ester]	1.4	7.7	–
O=C(Oc1c(F)c(F)c(C(F)(F)F)c(F)c1F)c1cc(C(F)(F)F)cc(C(F)(F)F)c1 [fragment 47, 2,3,5,6-Tetrafluoro-4-(trifluoromethyl)phenyl 3,5-bis(trifluoromethyl)benzoate]	0.9	1.0	–
O=C(Oc1c(F)c(F)cc(F)c1F)c1cc(C(F)(F)F)cc(C(F)(F)F)c1 [fragment 48, 2,3,5,6-Tetrafluorophenyl 3,5-bis(trifluoromethyl)benzoate]	1.0	0.9	–
COC(=O)NC(=NC(=O)OCC1c2ccccc2-c2ccccc21)n1cccn1 [fragment 49, N-Methoxycarbonyl-N′-9-fluorenylmethoxycarbonyl-pyrazole-1-carboxamidine]	–	–	isoTOP-ABPP ratio, lysine Q9BSH5_K15 ([1]; 100 uM_231_sol_in vitro): 3.5; isoTOP-ABPP ratio, lysine Q9H3P7_K117 ([2]; 100 uM_231_sol_in vitro): 13.9
CC(C)(C)OC(=O)N=C(NC(=O)OC(C)(C)C)n1cccn1 [fragment 50, reference compound]	–	–	isoTOP-ABPP ratio, lysine Q9BSH5_K15 ([1]; 100 uM_231_sol_in vitro): 2.8; isoTOP-ABPP ratio, lysine Q9H3P7_K117 ([2]; 100 uM_231_sol_in vitro): 14.9
NC(=O)c1cc(C(F)(F)F)cc(C(F)(F)F)c1 [fragment 51, reference compound]	0.8	0.9	–
